Consider 5 compounds from patent US8404650B2, “Methods of treating cancer with doxazolidine and prodrugs thereof” (priority 2005, dated 2013).

The subject of series [1] is MCF-7/Adr cells. As to the kind of experiment: Drug uptake by MCF-7/Adr cells, flow cytometry of drug fluorescence. Format: cell-based. As to conditions: for Drug uptake relative to Doxorubicin: MCF-7/Adr, 500 nM (equivalents), up to 3 h. As for the experimental part:
Drug uptake was measured by flow cytometery. Cells were dissociated with trypsin/EDTA, counted, and suspended in growth media to a concentration of 1×10^5 cells/mL. This cell suspension was dispensed in 2.5 mL aliquots into 6-well tissue culture plates. Plates were then incubated for 24 h at 37° C. in a humidified atmosphere of 5% CO2 and 95% air. The growth media was replaced with 2 mL of fresh growth media prior to addition of the drug. Doxaz, DoxF, and Doxorubicin HCl were dissolved in DMSO each at a concentration of 50 μM. The concentration was then corrected by measuring the solution absorbance at 480 nm (ε=11,500 M^−1 cm^−1). Drug solution (20 μL) was added to an individual well and was incubated for 5 min, 15 min, 30 min, 1 h, 2 h or 3 h at 37° C. in a humidified atmosphere of 5% CO2 and 95% air. All drug treatments were performed so all treatment times would end simultaneously. After treatment, culture media was removed, cells washed once with 0.5 mL HBSS, washed once with 0.5 mL trypsin/EDTA, and 0.5 mL trypsin/EDTA was added and cells were incubated for 5 min. After all cells were trypsinized, cells were aspirated with 1.5 mL cold D-PBS (Dulbecco's phosphate buffered saline, no calcium or magnesium) and this solution was added to 3 mL of cold D-PBS (4.5 mL total D-PBS) in a conical vial. Cells were centrifuged at 200 g for 5 min, and D-PBS was decanted off. Cells were washed once more in 5 mL cold D-PBS, centrifuged at 200 g for 5 min and D-PBS was decanted off. […] Cells were analyzed with excitation at 488 nm (15 mW Ar ion laser), with emission monitored between 570 nm and 600 nm. Instrument settings were optimized for the cell line and held constant for all experiments; for the anthracycline fluorescence analysis, 10,000 cells were analyzed for each sample. The data are presented as the mean fluorescence for each condition.
Uptake of pentyl PABC-Doxaz and Dox by multidrug resistant MCF-7/Adr breast cancer cells and SK-HEP-1 liver cancer cells in the presence of fetal bovine serum was determined by flow cytometry using drug fluorescence as a measure of drug in cells.
(Flow cytometry measures light scatter and fluorescence of single cells or particles in a stream.)

The test system of series [2] is Hep G2. As to the kind of experiment: Growth inhibition of Hep G2 liver cancer cells. Format: cell-based, human. The note with it: for IC50: Homo sapiens, HepG2. An excerpt:
Cell growth inhibition experiments initially focused on MCF-7, MCF-7/Adr, SK-HEP-1, and Hep G2 cancer cells as well as rat cardiomyocytes as a measure of cardiotoxicity and Vero cells (green monkey kidney cells) as an additional measure of normal cell toxicity. […]

The test system of series [3] is H9c2(2-1) rat cardiomyocytes. The experiment in a line: Growth inhibition of rat cardiomyocytes as a measure of cardiotoxicity. The format is cell-based. The note with it: for Toxicity to cardiomyocytes compared with Doxorubicin: rat cardiomyocytes; for IC50: Rattus norvegicus. As for the experimental part: Biological activity of simple Doxazolidine carbamates. Since the prodrug carbamates were designed to be activated by carboxylesterases CES1 (hCE1) and/or CES2 (hiCE), cell lines of interest were measured for expression of the respective mRNAs using reverse transcription (RT) followed by PCR (polymerase chain reaction). Cancer cell lines investigated included SHP-77 resistant small cell lung, DU-145 prostate, MCF-7 sensitive breast, MCF-7/Adr resistant breast, SK-HEP-1 liver, and Hep G2 liver cells. As a measure of possible cardiotoxicity, H9c2(2-1) rat cardiomyocytes were also investigated. Cardiotoxicity is relevant because the ultimate product of metabolism and subsequent hydrolysis of these carbamates is doxorubicin, which is cardiotoxic. […] Additionally, the rat cardiomyocytes, H9c2(2-1), also express more CES2 than CES1.
Cell growth inhibition experiments initially focused on MCF-7, MCF-7/Adr, SK-HEP-1, and Hep G2 cancer cells as well as rat cardiomyocytes as a measure of cardiotoxicity and Vero cells (green monkey kidney cells) as an additional measure of normal cell toxicity. The butyl and pentyl carbamates inhibited the growth of MCF-7, MCF-7/Adr, and SK-HEP-1 cell lines with a 24 h drug treatment period with some selectivity for cancer cells over cardiomyocytes relative to growth inhibition by Dox as shown in Table 2. […] The relative inactivity of the ethyl carbamate may indicate that a substantial lipophilic interaction is required at the active site of the carboxylesterases to hold the Doxaz substrate.
Biological activity of Doxazolidine carbamates with self-eliminating spacer. […] SHP-77 small cell lung cancer cells were also of interest because they express modest amounts of both enzymes. Inhibition of the growth of cardiomyocytes was used as a measure of cardiotoxicity, and inhibition of the growth of Vero cells, green monkey kidney cells, was again used as another measure of toxicity to normal cells. They also show more activity against the cancer cells that express higher levels of CES1. Of particular note is the higher activity against Hep G2 cells than against SK-HEP-1 cells. […] The low toxicity of pentyl PABC-Doxaz to cardiomyocytes relative to the toxicity of Dox is encouraging and consistent with the low level of expression of CES1 in cardiomyocytes.
A more thorough characterization of the growth inhibition of a variety of cancer cells as well as rat cardiomyocytes by Formula IV (aFK-PABC-Doxaz) was evaluated in comparison with inhibition of growth by Doxaz, Dox and aFK-PABC-Dox. Cells were treated with drug for 3 h and colony growth was measured at 3 to 5 days when cells reached about 80% confluence. The cancer cells included one prostate cancer cell line (DU-145), three related breast cancer cell lines (MCF-7, MCF-7/Adr, and MCF-7 uPA), and one pancreatic cancer cell line (Mia PaCa-2). The breast cancer cell lines represent the multi-drug resistant (MDR) phenotype with MCF-7/Adr cells and a cell line that is transfected with the gene for urokinase plasminogen activator (uPA), the primary enzyme responsible for cleavage of plasminogen to plasmin. Rat cardiomyocytes served as a model for comparison of drug cardiotoxicity. Growth inhibition was also measured with added plasmin. aFK-PABC-Doxaz inhibited the growth of most of the cancer cells 0.5 log or more better than did aFK-PABA-Dox. Although not as dramatic, this differential response paralleled the differential response between Doxaz and Dox which is approximately two logs except for the MDR expressing, MCF-7/Adr cells which show more than three logs differential response. […] Addition of 0.01 unit/mL of plasmin has no effect on the activity of Dox but increases the activity of both aFK-PABC-Doxaz and aFK-PABC-Dox, in some cases by more than a log. Addition of 0.01 unit/mL plasminogen increases the activity of aFK-PABC-Doxaz on average by 0.3 log. […]

Where [4] appears, read: 3 h drug treatment, crystal violet, read-out: Growth inhibition IC50, Hep G2, 3 h (converted).
Where [5] appears, read: H9c2, 3 h, read-out: Growth inhibition IC50, H9c2(2-1), 3 h.
The mark [6] stands for this setting: 24 h drug treatment, crystal violet.

Where two headings read alike, the source gives them in different places.

For `COc1cccc2c1C(=O)c1c(O)c3c(c(O)c1C2=O)C[C@@](O)(C(=O)CO)C[C@@H]3OC1CC2C(OCN2CN2COC3C(C)OC(O[C@H]4C[C@](O)(C(=O)CO)Cc5c(O)c6c(c(O)c54)C(=O)c4c(OC)cccc4C6=O)CC32)C(C)O1` (stereo partly shown) [DoxF, Doxoform, reference compound], the “Drug uptake relative to Doxorubicin” value in series [1] is “significantly more”. Moreover, the “IC50 lower than doxorubicin, Hep-G2” value in series [2] is “more than 25 fold”. Also, the “Toxicity to cardiomyocytes compared with Doxorubicin” value in series [3] is on record as “no more toxic to cardiomyocytes than Doxorubicin”.
On to `COc1cccc2c1C(=O)c1c(O)c3c(c(O)c1C2=O)C[C@@](O)(C(=O)CO)C[C@@H]3O[C@H]1C[C@H]2[C@H](OCN2C(=O)OCc2ccc(NC(=O)[C@H](CCCCN)NC(=O)[C@H](Cc3ccccc3)NC(=O)[C@@H](C)N)cc2)[C@H](C)O1` [Formula IV, D-Ala-L-Phe-L-Lys-p-aminobenzyloxycarbonyl-Doxaz], for which the IC50 in series [3] (H9c2, read-out: IC50 Rat Cardio. + plasmin) was found to be 40 nM.
`COc1cccc2c1C(=O)c1c(O)c3c(c(O)c1C2=O)C[C@@](O)(C(=O)CO)C[C@@H]3O[C@H]1C[C@H](N)[C@H](O)[C@H](C)O1` [Doxorubicin, reference compound]: the IC50 in series [2] (setting [4]) was 200 nM; in series [2] (24 h drug treatment, crystal violet, read-out: Growth inhibition IC50, Hep G2, 24 h (converted)) it was 31.6 nM; in series [3] (setting [5]), 31.6 nM; in series [3] (H9c2, 24 h, read-out: Growth inhibition IC50, H9c2(2-1), 24 h) it was 20 nM; in series [3] (H9c2, read-out: IC50 Rat Cardio., top line of the cell), 20 nM.
As for `CCCCCOC(=O)Nc1ccc(COC(=O)N2COC3C(C)OC(OC4CC(O)(C(=O)CO)Cc5c(O)c6c(c(O)c54)C(=O)c4c(OC)cccc4C6=O)CC32)cc1` (stereo not shown) [Pentyl PABC-Doxaz, Pentyl 4-(N-doxazolidinylcarbonyloxymethyl)phenylcarbamate], the “Uptake relative to Dox, MCF-7/Adr” value in series [1] (in the presence of fetal bovine serum) is reported as “taken up much better”. The “Growth inhibition IC50, Hep G2, 24 h” value in series [2] (setting [6]) is given as −7.3 ± 0.2 log of the molar concentration. In addition, the “Growth inhibition IC50, H9c2(2-1), 24 h” value in series [3] (setting [6]) is −6.2 ± 0.2 log of the molar concentration.
With `COc1cccc2c1C(=O)c1c(O)c3c(c(O)c1C2=O)C[C@@](O)(C(=O)CO)C[C@@H]3O[C@H]1C[C@@H]2NCO[C@@H]2[C@H](C)O1` [Doxaz, Doxazolidine], in series [1], the “Drug uptake relative to Doxorubicin” value is “significantly more”. In addition, the IC50 in series [2] (setting [4]) is 10 nM; in series [3] (setting [5]) it was 31.6 nM. The “Toxicity to cardiomyocytes compared with Doxorubicin” value in series [3] is reported as “no more cardiotoxic than Doxorubicin”.

In general, IC50 refers to the concentration at which inhibition is half-maximal.
